From US20250346600A1, “TRICYCLIC DERIVATIVES AND RELATED USES” (MOMA Therapeutics, Inc., priority 2023, published 2025) come the findings set out here.

The target of experiment [1] is T1, Full length WRN protein (aa 2-1432) (Homo sapiens (Human), UniProt Q14191). Put plainly: WRN ATPase ADP-Glo biochemical assay, Assay Format B (100 μM ATP). Conditions: 0.25 nM WRN, 100 nM C6.18 ssDNA, 60 min preincubation, read-out: ATPase ADPGlo AC50 (uM)- Assay Format B. (ADP-Glo turns the ADP formed in a reaction into a luminescent signal.)
T1 sequence (Q14191 2-1432): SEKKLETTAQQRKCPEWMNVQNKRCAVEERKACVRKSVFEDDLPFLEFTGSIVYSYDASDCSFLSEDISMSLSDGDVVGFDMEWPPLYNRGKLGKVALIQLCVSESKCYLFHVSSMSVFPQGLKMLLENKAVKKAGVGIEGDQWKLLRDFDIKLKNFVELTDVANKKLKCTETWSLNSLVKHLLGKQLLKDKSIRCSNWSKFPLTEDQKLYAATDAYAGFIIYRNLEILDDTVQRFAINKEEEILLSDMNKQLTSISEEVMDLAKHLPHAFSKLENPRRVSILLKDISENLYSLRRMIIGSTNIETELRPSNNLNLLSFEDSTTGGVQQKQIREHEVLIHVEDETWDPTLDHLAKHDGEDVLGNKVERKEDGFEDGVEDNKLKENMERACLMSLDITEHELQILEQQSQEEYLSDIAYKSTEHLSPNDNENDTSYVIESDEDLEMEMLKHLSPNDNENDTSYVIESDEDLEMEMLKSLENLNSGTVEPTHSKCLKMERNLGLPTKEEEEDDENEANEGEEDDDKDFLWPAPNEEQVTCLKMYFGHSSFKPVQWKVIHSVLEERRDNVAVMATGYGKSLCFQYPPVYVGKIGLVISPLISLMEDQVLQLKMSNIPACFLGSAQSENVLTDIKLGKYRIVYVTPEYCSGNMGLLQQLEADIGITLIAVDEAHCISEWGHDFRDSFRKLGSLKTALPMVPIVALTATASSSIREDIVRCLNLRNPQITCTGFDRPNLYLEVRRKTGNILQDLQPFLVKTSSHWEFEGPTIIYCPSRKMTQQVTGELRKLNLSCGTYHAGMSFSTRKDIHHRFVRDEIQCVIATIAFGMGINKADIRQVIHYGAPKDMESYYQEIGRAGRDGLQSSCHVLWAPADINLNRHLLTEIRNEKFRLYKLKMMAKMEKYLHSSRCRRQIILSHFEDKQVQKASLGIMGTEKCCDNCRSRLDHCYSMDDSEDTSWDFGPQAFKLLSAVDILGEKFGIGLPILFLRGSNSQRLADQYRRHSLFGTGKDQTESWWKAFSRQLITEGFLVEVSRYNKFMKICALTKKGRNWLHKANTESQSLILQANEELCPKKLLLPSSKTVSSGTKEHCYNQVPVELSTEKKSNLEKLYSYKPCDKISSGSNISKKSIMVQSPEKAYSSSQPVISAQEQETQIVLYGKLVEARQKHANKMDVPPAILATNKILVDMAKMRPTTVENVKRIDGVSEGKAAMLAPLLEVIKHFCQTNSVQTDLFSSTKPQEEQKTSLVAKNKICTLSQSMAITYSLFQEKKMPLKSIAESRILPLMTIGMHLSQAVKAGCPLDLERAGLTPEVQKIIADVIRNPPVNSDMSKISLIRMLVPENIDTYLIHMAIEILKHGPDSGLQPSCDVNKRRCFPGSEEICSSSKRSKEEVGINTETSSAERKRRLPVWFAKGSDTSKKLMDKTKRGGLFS
Experiment [2] relates to HCT116 cells. Put plainly: HCT116 (MSI) 7 day viability, CellTiter Glo. In kind it is cell-based. Conditions: 7 days, read-out: HCT116 (MSI) Viability 7 Day Abs AC50. The gist of the method:
(§1)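 Seven-day viability is assessed with CellTiter Glo after compounds, diluted in ten 3-fold steps in DMSO, are exposed to HCT116 (50 cells/well) or HT29 (500 cells/well). Reported IC50 is the geometric mean of at least two independent runs.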

Experiment [3] concerns the target T1, Full length WRN protein (aa 2-1432). Put plainly: WRN ATPase ADP-Glo biochemical assay, Assay Format A (10 μM ATP). Conditions: 0.25 nM WRN, 100 nM C6.18 ssDNA, 30 min preincubation, read-out: ATPase ADPGlo AC50 (uM)- Assay Format A. The gist of the method:
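Sf9-expressed FLAG-AVI-TEV-tagged WRN (0.5 nM) preincubated 30 min with compound (11-point 3-fold dilution). Reaction started with 200 nM C6.18 39-mer ssDNA and 20 μM ATP (addition concentrations), run 30 min at room temperature. ADP measured by ADP-Glo luminescence; IC50 from four-parameter fit, geometric mean of ≥2 runs.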

Experiment [4] deals with HT29 cells. Description: HT29 (MSS) 7 day viability, CellTiter Glo. Type of experiment: cell-based. The note with it: 7 days, read-out: HT29 (MSS) Viability 7 Day CTGAbs AC50. In short, it runs like this:
as §1
In general terms: In ATP-based viability assays light output follows the ATP content of the culture.

Where two headings read alike, the source gives them in different places.

On to `C=CC(=O)N1CCOc2nn(-c3ccc(C4CCC4)cc3)c3c2C(C1)N(C(=O)c1ccc(Br)c2[nH]cnc12)CC3` (centres unmarked) [Compound 41, 1-(5-(7-bromo-1H-benzo[d]imidazole-4-carbonyl)-2-(4-cyclobutylphenyl)-2,3,4,5,5a,6,8,9-octahydro-7H-10-oxa-1,2,5,7-tetraazacycloocta[cd]inden-7-yl)prop-2-en-1-one], for which the AC50 – broadly, the concentration giving half of the maximal activity seen – in experiment [1] is 0.015 to 0.055 µM; in experiment [2] (Homo sapiens, HCT-116, 168 h) it was 1 to 100 nM; in experiment [3] it was 0.0015 to 0.005 µM; in experiment [4] (Homo sapiens, HT-29, 168 h), more than 3000 nM.

Take `C=CC(=O)N1CCOc2nn(-c3ccc(C(C)C)cc3)c3c2C(C1)N(C(=O)c1cnc(C(F)(F)F)c(O)c1)CC3` (centres unmarked) [Compound 47, 1-(5-(5-hydroxy-6-(trifluoromethyl)nicotinoyl)-2-(4-isopropylphenyl)-2,3,4,5,5a,6,8,9-octahydro-7H-10-oxa-1,2,5,7-tetraazacycloocta[cd]inden-7-yl)prop-2-en-1-one]: the AC50 in experiment [1] was more than 0.055 µM; in experiment [2] (Homo sapiens, HCT-116, 168 h), more than 1000 nM; in experiment [3], 0.005 to 0.015 µM; in experiment [4] (Homo sapiens, HT-29, 168 h) it was more than 3000 nM.

In the case of `C=CC(=O)N1CCc2nn(-c3ccc(C4CCC4)cc3O)c3c2C(C1)N(C(=O)c1ccc(OC(F)F)nc1)CC3` (centres unmarked) [Compound 74, 1-(2-(4-cyclobutyl-2-hydroxyphenyl)-5-(6-(difluoromethoxy)nicotinoyl)-2,3,4,5,5a,6,8,9-octahydro-7H-1,2,5,7-tetraazabenzo[cd]azulen-7-yl)prop-2-en-1-one], the concentration at half-maximal activity (AC50) in experiment [1] is 0.005 to 0.015 µM; in experiment [2] (Homo sapiens, HCT-116, 168 h), 1 to 100 nM; in experiment [3], less than 0.0015 µM; in experiment [4] (Homo sapiens, HT-29, 168 h), more than 3000 nM.

In the case of `C=CC(=O)N1CCc2nn(-c3ccc(C4CC4)cc3)c3c2C(C1)N(C(=O)c1cnc(C(F)(F)F)c(O)c1)CC3` (centres unmarked) [Compound 1, 1-(2-(4-cyclopropylphenyl)-5-(5-hydroxy-6-(trifluoromethyl)nicotinoyl)-2,3,4,5,5a,6,8,9-octahydro-7H-1,2,5,7-tetraazabenzo[cd]azulen-7-yl)prop-2-en-1-one], the AC50 in experiment [1] was 0.015 to 0.055 µM; in experiment [2] (Homo sapiens, HCT-116, 168 h), 100 to 250 nM; in experiment [3] it was 0.0015 to 0.005 µM; in experiment [4] (Homo sapiens, HT-29, 168 h) it was more than 3000 nM.

As to `C=CC(=O)N1CC(OCC2=CCOCC2)c2nn(-c3ccc(C4CCC4)cc3)c3c2C(C1)N(C(=O)c1cnc(C(F)(F)F)cc1N)CC3` (centres unmarked) [Compound 260, 1-(5-(4-amino-6-(trifluoromethyl)nicotinoyl)-2-(4-cyclobutylphenyl)-9-((3,6-dihydro-2H-pyran-4-yl)methoxy)-2,3,4,5,5a,6,8,9-octahydro-7H-1,2,5,7-tetraazabenzo[cd]azulen-7-yl)prop-2-en-1-one], the AC50 in experiment [1] is 0.0015 to 0.005 µM; in experiment [2] (Homo sapiens, HCT-116, 168 h) it was 1 to 100 nM; in experiment [3] it was less than 0.0015 µM; in experiment [4] (Homo sapiens, HT-29, 168 h), more than 3000 nM.

Regarding `C=CC(=O)N1CCOc2nn(-c3ccc(C4CC4)cc3)c3c2C(C1)N(C(=O)c1ccc(C(F)(F)F)c2[nH]ncc12)CC3` (centres unmarked) [Compound 50, 1-(2-(4-cyclopropylphenyl)-5-(7-(trifluoromethyl)-1H-indazole-4-carbonyl)-2,3,4,5,5a,6,8,9-octahydro-7H-10-oxa-1,2,5,7-tetraazacycloocta[cd]inden-7-yl)prop-2-en-1-one], the AC50 was 0.015 to 0.055 µM in experiment [1]; 100 to 250 nM in experiment [2] (Homo sapiens, HCT-116, 168 h); 0.0015 to 0.005 µM in experiment [3]; more than 3000 nM in experiment [4] (Homo sapiens, HT-29, 168 h).

For the compound `C=CC(=O)N1CCc2nn(-c3ccc(C4CC4)cc3O)c3c2C(C1)N(C(=O)c1ccc(C(F)(F)F)cc1N)CC3` (centres unmarked) [Compound 245, 1-(5-(2-amino-4-(trifluoromethyl)benzoyl)-2-(4-cyclopropyl-2-hydroxyphenyl)-2,3,4,5,5a,6,8,9-octahydro-7H-1,2,5,7-tetraazabenzo[cd]azulen-7-yl)prop-2-en-1-one], the AC50 in experiment [1] is 0.005 to 0.015 µM; in experiment [2] (Homo sapiens, HCT-116, 168 h), 1 to 100 nM; in experiment [3], less than 0.0015 µM; in experiment [4] (Homo sapiens, HT-29, 168 h) it was more than 3000 nM.

`C=CC(=O)N1CCOc2nn(-c3ccc(C4CC4)cc3)c3c2C(C1)N(C(=O)c1ccc(Br)c2[nH]cnc12)CC3` (centres unmarked) [Compound 49, 1-(5-(7-bromo-1H-benzo[d]imidazole-4-carbonyl)-2-(4-cyclopropylphenyl)-2,3,4,5,5a,6,8,9-octahydro-7H-10-oxa-1,2,5,7-tetraazacycloocta[cd]inden-7-yl)prop-2-en-1-one]: the AC50 was 0.015 to 0.055 µM in experiment [1]; 1 to 100 nM in experiment [2] (Homo sapiens, HCT-116, 168 h); less than 0.0015 µM in experiment [3]; more than 3000 nM in experiment [4] (Homo sapiens, HT-29, 168 h).

Turning to `C=CC(=O)N1CC(C)Oc2nn(-c3ccc(C(C)C)cc3)c3c2C(C1)N(C(=O)c1ccc(Br)c2[nH]cnc12)CC3` (centres unmarked) [Compound 53, 1-(5-(7-bromo-1H-benzo[d]imidazole-4-carbonyl)-2-(4-isopropylphenyl)-9-methyl-2,3,4,5,5a,6,8,9-octahydro-7H-10-oxa-1,2,5,7-tetraazacycloocta[cd]inden-7-yl)prop-2-en-1-one], the half-maximal activity concentration (AC50) is more than 0.055 µM in experiment [1], 500 to 1000 nM in experiment [2], 0.015 to 0.055 µM in experiment [3] and more than 3000 nM in experiment [4].

Consider `C=CC(=O)N1CC(C)c2nn(-c3ccc(C4CCC4)cc3O)c3c2C(C1)N(C(=O)c1cnc(C(F)(F)F)cc1N)CC3` (centres unmarked) [Compound 135, 1-(5-(4-amino-6-(trifluoromethyl)nicotinoyl)-2-(4-cyclobutyl-2-hydroxyphenyl)-9-methyl-2,3,4,5,5a,6,8,9-octahydro-7H-1,2,5,7-tetraazabenzo[cd]azulen-7-yl)prop-2-en-1-one], for which the AC50 was 0.005 to 0.015 µM in experiment [1], 1 to 100 nM in experiment [2], less than 0.0015 µM in experiment [3] and more than 3000 nM in experiment [4].

With `C=CC(=O)N1CCc2nn(-c3ccc(C4CC4)cc3)c3c2C(C1)N(C(=O)c1cnc(Cl)c(F)c1N)CC3` (centres unmarked) [Compound 181, 1-(5-(4-amino-6-chloro-5-fluoronicotinoyl)-2-(4-cyclopropylphenyl)-2,3,4,5,5a,6,8,9-octahydro-7H-1,2,5,7-tetraazabenzo[cd]azulen-7-yl)prop-2-en-1-one], the AC50 is 0.0015 to 0.005 µM in experiment [1]; 1 to 100 nM in experiment [2] (Homo sapiens, HCT-116, 168 h); less than 0.0015 µM in experiment [3]; more than 3000 nM in experiment [4] (Homo sapiens, HT-29, 168 h).

Take `C=CC(=O)N1CCc2nn(-c3ccc(C(C)C)cc3)c3c2C(C1)N(C(=O)c1cnc(C(F)(F)F)cc1N)CC3` (centres unmarked) [Compound 150, 1-(5-(4-amino-6-(trifluoromethyl)nicotinoyl)-2-(4-isopropylphenyl)-2,3,4,5,5a,6,8,9-octahydro-7H-1,2,5,7-tetraazabenzo[cd]azulen-7-yl)prop-2-en-1-one]: the AC50 is 0.005 to 0.015 µM in experiment [1]; 1 to 100 nM in experiment [2] (Homo sapiens, HCT-116, 168 h); less than 0.0015 µM in experiment [3]; more than 3000 nM in experiment [4] (Homo sapiens, HT-29, 168 h).

As for `C=CC(=O)N1CCc2nn(-c3ccc(C4CC4)cc3O)c3c2C(C1)N(C(=O)c1ccc(Br)nc1N)CC3` (centres unmarked) [Compound 193, 1-(5-(2-amino-6-bromonicotinoyl)-2-(4-cyclopropyl-2-hydroxyphenyl)-2,3,4,5,5a,6,8,9-octahydro-7H-1,2,5,7-tetraazabenzo[cd]azulen-7-yl)prop-2-en-1-one], the AC50 in experiment [1] was 0.005 to 0.015 µM; in experiment [2] (Homo sapiens, HCT-116, 168 h), 1 to 100 nM; in experiment [3], less than 0.0015 µM; in experiment [4] (Homo sapiens, HT-29, 168 h) it was more than 3000 nM.

`C=CC(=O)N1CC(C)c2nn(-c3ccc(C(C)C)cc3)c3c2C(C1)N(C(=O)c1ccc(Br)c2[nH]cnc12)CC3` (centres unmarked) [Compound 33, 1-(5-(7-bromo-1H-benzo[d]imidazole-4-carbonyl)-2-(4-isopropylphenyl)-9-methyl-2,3,4,5,5a,6,8,9-octahydro-7H-1,2,5,7-tetraazabenzo[cd]azulen-7-yl)prop-2-en-1-one]: the AC50 in experiment [1] is 0.005 to 0.015 µM; in experiment [2], 1 to 100 nM; in experiment [3], 0.0015 to 0.005 µM; in experiment [4] (Homo sapiens, HT-29, 168 h) it was more than 3000 nM.

Regarding `C=CC(=O)N1CCc2nn(-c3ccc(C(C)C)cc3)c3c2C(C1)N(C(=O)c1ccc(Br)c2c1CCO2)CC3` (centres unmarked) [Compound 65, 1-(5-(7-bromo-2,3-dihydrobenzofuran-4-carbonyl)-2-(4-isopropylphenyl)-2,3,4,5,5a,6,8,9-octahydro-7H-1,2,5,7-tetraazabenzo[cd]azulen-7-yl)prop-2-en-1-one], the AC50 in experiment [1] is 0.015 to 0.055 µM; in experiment [2] (Homo sapiens, HCT-116, 168 h), 1 to 100 nM; in experiment [3] it was less than 0.0015 µM; in experiment [4] (Homo sapiens, HT-29, 168 h) it was more than 3000 nM.

Regarding `C=CC(=O)N1CCc2nn(-c3ccc(C4CCC4)cc3O)c3c2C(C1)N(C(=O)c1cnc(C(F)(F)F)c(F)c1N)CC3` (centres unmarked) [Compound 134, 1-(5-(4-amino-5-fluoro-6-(trifluoromethyl)nicotinoyl)-2-(4-cyclobutyl-2-hydroxyphenyl)-2,3,4,5,5a,6,8,9-octahydro-7H-1,2,5,7-tetraazabenzo[cd]azulen-7-yl)prop-2-en-1-one], the AC50 in experiment [1] was 0.0015 to 0.005 µM; in experiment [2] (Homo sapiens, HCT-116, 168 h), 1 to 100 nM; in experiment [3] it was less than 0.0015 µM; in experiment [4] (Homo sapiens, HT-29, 168 h), more than 3000 nM.

`C=CC(=O)N1CCc2nn(-c3ccc(C4CC4)cc3)c3c2C(C1)N(C(=O)c1cnc(C(F)(F)F)c(F)c1N)CC3` (centres unmarked) [Compound 178, 1-(5-(4-amino-5-fluoro-6-(trifluoromethyl)nicotinoyl)-2-(4-cyclopropylphenyl)-2,3,4,5,5a,6,8,9-octahydro-7H-1,2,5,7-tetraazabenzo[cd]azulen-7-yl)prop-2-en-1-one]: the AC50 is 0.005 to 0.015 µM in experiment [1]; 1 to 100 nM in experiment [2] (Homo sapiens, HCT-116, 168 h); less than 0.0015 µM in experiment [3]; more than 3000 nM in experiment [4] (Homo sapiens, HT-29, 168 h).
